The values below come from ChEMBL document CHEMBL1139711, “A novel oxazine ring closure reaction affording (Z)-((E)-2-styrylbenzo[b]furo[3,2-d][1,3]oxazin-4-ylideno)acetaldehydes and their anti-osteoclastic bone resorption activity” (Bioorg Med Chem Lett, 2006).

Activity calls are given as the source filed them. The rule behind the calls is not given here.

For the assay, the system named is Osteoclast. Nature of the assay: Bone resorption activity assessed as inhibition of PGE2-stimulated pit formation in ddY mouse osteoclasts. The assay is classed as functional, cell-based.

With `C[C@]12CC[C@@H]3c4ccc(O)cc4CC[C@H]3[C@@H]1CC[C@@H]2O`, the result was Active.
For the molecule `O=C/C=C1\OC(/C=C/c2ccccc2)=Nc2c1oc1ccc(Br)cc21`, the result was inactive.
As to `CCOC(=O)/C=C/C=C1\OC(/C=C/c2ccccc2)=Nc2c1oc1ccc(Br)cc21`, the result was Active.
